Patent US8003649B2 (AstraZeneca AB, priority 2007, dated 2011)

What follows are molecules tested against T1, Androgen Receptor (AR) (Homo sapiens, UniProt P10275, T878A) (assay: LNCaP Androgen Receptor Down-regulation Cell Assay (immunofluorescence end point)). Conditions: LNCaP prostate carcinoma cells, compound incubation 20-22 hours, 50% reduction of the AR signal; read-out: Androgen Receptor Down-regulation Assay (a) IC50/μM.
T1 construct: cell based immuno-fluorescence assay using the LNCaP prostate epithelial cell line; endogenous in cells; host or cells: LNCaP clone FGC (ATCC CRL-1740)
T1 sequence (P10275 1-920 T878A): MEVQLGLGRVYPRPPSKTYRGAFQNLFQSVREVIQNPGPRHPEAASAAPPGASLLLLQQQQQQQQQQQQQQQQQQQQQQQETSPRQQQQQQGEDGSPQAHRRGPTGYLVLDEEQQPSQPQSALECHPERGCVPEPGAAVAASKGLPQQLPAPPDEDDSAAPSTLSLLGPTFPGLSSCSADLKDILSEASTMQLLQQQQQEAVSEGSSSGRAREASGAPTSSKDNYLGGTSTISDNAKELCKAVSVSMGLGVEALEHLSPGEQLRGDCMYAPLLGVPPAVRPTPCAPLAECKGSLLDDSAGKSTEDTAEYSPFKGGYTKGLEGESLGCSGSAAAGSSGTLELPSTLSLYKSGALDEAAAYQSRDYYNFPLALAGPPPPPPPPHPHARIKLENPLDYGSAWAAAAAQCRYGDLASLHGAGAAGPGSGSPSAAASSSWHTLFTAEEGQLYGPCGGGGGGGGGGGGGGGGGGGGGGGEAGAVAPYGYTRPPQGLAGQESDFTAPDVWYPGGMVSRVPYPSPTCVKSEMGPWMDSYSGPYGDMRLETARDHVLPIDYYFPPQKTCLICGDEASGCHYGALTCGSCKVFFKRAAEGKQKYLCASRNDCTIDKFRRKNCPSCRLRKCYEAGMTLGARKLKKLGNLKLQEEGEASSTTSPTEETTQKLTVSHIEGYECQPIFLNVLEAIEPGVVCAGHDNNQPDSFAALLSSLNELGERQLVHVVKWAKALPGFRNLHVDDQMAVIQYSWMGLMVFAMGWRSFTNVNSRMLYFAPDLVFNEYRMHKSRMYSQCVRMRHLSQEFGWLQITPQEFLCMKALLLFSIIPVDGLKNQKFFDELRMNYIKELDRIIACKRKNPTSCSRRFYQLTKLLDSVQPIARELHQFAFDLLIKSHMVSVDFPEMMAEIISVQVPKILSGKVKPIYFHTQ
Format: cell-based
Method in brief: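 AR loss reported as IC50 from curve fits of fluorescence dose-response data, with AR immunostained and read by laser-scanning cytometry. Compound exposure was 20-22 h at 37° C in LNCaP cells grown in 5% charcoal-stripped FBS and plated overnight beforehand.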

| DC50 | SMILES |
| --- | --- |
| 4.8 µM | N#Cc1cc(OC2CCN(c3ccc4nnc(C(F)(F)F)n4n3)CC2)ccn1 [Example 449, 4-[[1-[3-(trifluoromethyl)[1,2,4]triazolo[4,3-b]pyridazin-6-yl]piperidin-4-yl]oxy]pyridine-2-carbonitrile] |
| 5.7 µM | O=S(=O)(c1ccc(F)cc1)N1CC2CN(c3ccc4nnc(C(F)(F)F)n4n3)CC2C1 (centres unmarked) [Example 453] |
| 9.2 µM | COc1cccc(S(=O)(=O)N2CC3CN(c4ccc5nnc(C(F)(F)F)n5n4)CC3C2)c1 (centres unmarked) [Example 454] |
| 21 µM | O=S(=O)(c1cccc(F)c1)N1CCCN(c2ccc3nnc(C(F)(F)F)n3n2)CC1 [Example 456] |
| 5.1 µM | O=S(=O)(c1ccccc1F)N1CCCN(c2ccc3nnc(C(F)(F)F)n3n2)CC1 [Example 460] |
| 7.7 µM | COc1ccccc1OCC1CCN(c2ccc3nnc(C(F)(F)F)n3n2)CC1 [Example 462] |
| 0.98 µM | Fc1ccc(OCC2CCN(c3ccc4nnc(C(F)(F)F)n4n3)CC2)cc1 [Example 463] |
| 1.4 µM | Fc1cccc(OCC2CCN(c3ccc4nnc(C(F)(F)F)n4n3)CC2)c1 [Example 464] |
| > 19 µM | COc1cccc(OCC2CCN(c3ccc4nnc(C(F)(F)F)n4n3)CC2)c1 [Example 466] |
| 4.9 µM | Fc1ccccc1OCC1CCN(c2ccc3nnc(C(F)(F)F)n3n2)CC1 [Example 467] |
| > 11 µM | FC(F)(F)c1ccc(OCC2CCN(c3ccc4nnc(C(F)(F)F)n4n3)CC2)cc1 [Example 468] |
| 1.8 µM | N#Cc1ccccc1OCC1CCN(c2ccc3nnc(C(F)(F)F)n3n2)CC1 [Example 469] |
| 4.6 µM | FC(F)(F)c1nnc2ccc(N3CCC(COc4ccc(Cl)cc4)CC3)nn12 [Example 470] |
| 2 µM | FC(F)(F)c1ccccc1OCC1CCN(c2ccc3nnc(C(F)(F)F)n3n2)CC1 [Example 471] |
| 3.2 µM | FC(F)(F)c1nnc2ccc(N3CCC(COc4cccc(Cl)c4)CC3)nn12 [Example 473] |
| 0.96 µM | N#Cc1ccc(OCC2CCN(c3ccc4nnc(C(F)(F)F)n4n3)CC2)cc1 [Example 474] |
| > 15 µM | FC(F)(F)c1nnc2ccc(N3CCC(COc4ccccc4Cl)CC3)nn12 [Example 475] |
| 3.5 µM | N#Cc1cccc(OCC2CCN(c3ccc4nnc(C(F)(F)F)n4n3)CC2)c1 [Example 476] |
| 6.3 µM | FC(F)(F)c1nnc2ccc(N3CCN(Cc4c[nH]c5cnccc45)CC3)nn12 [Example 477] |
| 9.6 µM | FC(F)(F)c1nnc2ccc(N3CCN(Cc4c[nH]c5ccncc45)CC3)nn12 [Example 480] |
| 6.6 µM | FC(F)(F)c1nnc2ccc(N3CCC(COC4COC4)CC3)nn12 [Example 481] |
| 1.8 µM | FC(F)(F)COCC1CCN(c2ccc3nnc(C(F)(F)F)n3n2)CC1 [Example 482] |
| > 30 µM | Fc1cccc(OC2CN(c3ccc4nnc(C(F)(F)F)n4n3)C2)c1 [Example 483, 6-[3-(3-fluorophenoxy)azetidin-1-yl]-3-(trifluoromethyl)[1,2,4]triazolo[4,3-b]pyridazine] |
| > 14 µM | Fc1ccc(OC2CN(c3ccc4nnc(C(F)(F)F)n4n3)C2)cc1 [Example 484] |
| > 13 µM | COc1ccc(OC2CN(c3ccc4nnc(C(F)(F)F)n4n3)C2)cc1 [Example 486] |
| 5.9 µM | Fc1cccc(OCC2CN(c3ccc4nnc(C(F)(F)F)n4n3)C2)c1 [Example 490] |
| 7.2 µM | Fc1cccc(OCC2CN(c3ccc4nnc(C(F)(F)F)n4n3)C2)c1 [Example 491] |
| > 30 µM | FC(F)(F)c1nnc2ccc(N3CC(COc4cccnc4)C3)nn12 [Example 492] |

| DC50 | SMILES |
| --- | --- |
| 0.43 µM | COc1ccc2[nH]cc(C3CCN(c4ccc5nnc(C(F)(F)F)n5n4)CC3)c2c1 [Example 494, 6-[4-(5-methoxy-1H-indol-3-yl)piperidin-1-yl]-3-(trifluoromethyl)[1,2,4]triazolo[4,3-b]pyridazine] |
| 0.35 µM | N#Cc1ccc2[nH]cc(C3CCN(c4ccc5nnc(C(F)(F)F)n5n4)CC3)c2c1 [Example 495, 3-[1-[3-(trifluoromethyl)[1,2,4]triazolo[4,3-b]pyridazin-6-yl]piperidin-4-yl]-1H-indole-5-carbonitrile] |
| 2.8 µM | CN1CCN(C(=O)c2ccc3[nH]cc(C4CCN(c5ccc6nnc(C(F)(F)F)n6n5)CC4)c3c2)CC1 [Example 497] |
| 2.4 µM | COCCNC(=O)c1ccc2[nH]cc(C3CCN(c4ccc5nnc(C(F)(F)F)n5n4)CC3)c2c1 [Example 498] |
| 1.7 µM | CN(C)C(=O)c1ccc2[nH]cc(C3CCN(c4ccc5nnc(C(F)(F)F)n5n4)CC3)c2c1 [Example 499] |
| > 18 µM | O=C(c1ccc2[nH]cc(C3CCN(c4ccc5nnc(C(F)(F)F)n5n4)CC3)c2c1)N1CC[C@@H](O)C1 [Example 500] |
| 2.2 µM | O=C(c1ccc2[nH]cc(C3CCN(c4ccc5nnc(C(F)(F)F)n5n4)CC3)c2c1)N1CCOCC1 [Example 502] |
| 4.3 µM | O=C(NCCN1CCOCC1)c1ccc2[nH]cc(C3CCN(c4ccc5nnc(C(F)(F)F)n5n4)CC3)c2c1 [Example 503] |
| 1.9 µM | COCCN(C)C(=O)c1ccc2[nH]cc(C3CCN(c4ccc5nnc(C(F)(F)F)n5n4)CC3)c2c1 [Example 504] |
| > 19 µM | O=C(c1ccc2[nH]cc(C3CCN(c4ccc5nnc(C(F)(F)F)n5n4)CC3)c2c1)N1CC[C@H](O)C1 [Example 505] |
| 0.53 µM | FC(F)(F)c1nnc2ccc(N3CCC(c4c[nH]c5ccccc45)CC3)nn12 [Example 507, 6-[4-(1H-indol-3-yl)piperidin-1-yl]-3-(trifluoromethyl)[1,2,4]triazolo[4,3-b]pyridazine] |
| 2.2 µM | FC(F)(F)c1nnc2ccc(N3CCC(c4cn(CCN5CCCC5)c5ccccc45)CC3)nn12 [Example 508, 6-[4-[1-(2-pyrrolidin-1-ylethyl)-1H-indol-3-yl]piperidin-1-yl]-3-(trifluoromethyl)[1,2,4]triazolo[4,3-b]pyridazine] |
| 0.87 µM | COCCN(C)C(=O)c1ccc(C2CCN(c3ccc4nnc(C(F)(F)F)n4n3)CC2)cc1 [Example 512, N-(2-methoxyethyl)-N-methyl-4-[1-[3-(trifluoromethyl)[1,2,4]triazolo[4,3-b]pyridazin-6-yl]piperidin-4-yl]benzamide] |
| 0.87 µM | Cn1nccc1CCOc1ccc(N2CCN(c3ccc4nnc(C(F)(F)F)n4n3)CC2)cc1 [Example 514, 6-[4-[4-[2-(1-methyl-1H-pyrazol-5-yl)ethoxy]phenyl]piperazin-1-yl]-3-(trifluoromethyl)[1,2,4]triazolo[4,3-b]pyridazine] |
| 1.4 µM | FC(F)(F)c1nnc2ccc(N3CCCC(c4ccccc4)C3)nn12 (centres unmarked) [Example 515, 6-(3-phenylpiperidin-1-yl)-3-(trifluoromethyl)[1,2,4]triazolo[4,3-b]pyridazine] |
| 1.4 µM | FC(F)(F)c1nnc2ccc(N3CCCC(COc4ccccc4)C3)nn12 (centres unmarked) [Example 516, 6-[3-(Phenoxymethyl)piperidin-1-yl]-3-(trifluoromethyl)[1,2,4]triazolo[4,3-b]pyridazine] |
| 5.4 µM | CS(=O)(=O)c1ccc(C2CCN(c3ccc4nnc(C(F)(F)F)n4n3)CC2)cc1 [Example 521] |
| 3.9 µM | CNC(=O)c1ccc(C2CCN(c3ccc4nnc(C(F)(F)F)n4n3)CC2)cc1 [Example 522] |
| 1 µM | COc1ccc(C2CCN(c3ccc4nnc(C(F)(F)F)n4n3)CC2)cc1 [Example 523] |
| 3.2 µM | FC(F)(F)c1ccc(C2CCN(c3ccc4nnc(C(F)(F)F)n4n3)CC2)cc1 [Example 524] |
| 5.2 µM | Fc1cccc(C2CCN(c3ccc4nnc(C(F)(F)F)n4n3)CC2)c1 [Example 525] |
| 2.5 µM | COc1cccc(C2CCN(c3ccc4nnc(C(F)(F)F)n4n3)CC2)c1 [Example 526] |
| 0.67 µM | COc1cccc(OC2CCN(c3ccc4nnc(C(F)(F)F)n4n3)CC2)c1 [Example 527] |
| 2.2 µM | COc1ccc(OC2CCN(c3ccc4nnc(C(F)(F)F)n4n3)CC2)cc1 [Example 528] |
| 1.9 µM | Fc1ccccc1OC1CCN(c2ccc3nnc(C(F)(F)F)n3n2)CC1 [Example 529] |
| 1.6 µM | FC(F)(F)c1nnc2ccc(N3CCC(Oc4ccccc4Cl)CC3)nn12 [Example 530] |
| 1.8 µM | COc1ccccc1OC1CCN(c2ccc3nnc(C(F)(F)F)n3n2)CC1 [Example 531] |

| SMILES | DC50 |
| --- | --- |
| CC(C)(C)OCC1CCN(c2ccc3nnc(C(F)(F)F)n3n2)CC1 [Example 489, 6-[4-(tert-butoxymethyl)piperidin-1-yl]-3-(trifluoromethyl)[1,2,4]triazolo[4,3-b]pyridazine] | 3.6 µM |
